Activity data for five molecules are collected here from ChEMBL document CHEMBL1143788, “Trifunctional norrisolide probes for the study of Golgi vesiculation” (2007).

For experiment [1], the system named is NRK. Put plainly: Effect on Golgi fragmentation in NRK cells for 60 mins. The experiment is classed as functional, Rattus norvegicus.
Experiment [2] relates to NRK. Put plainly: Effect on Golgi fragmentation in NRK cells at 30 uM for 60 mins. The experiment is classed as functional, Rattus norvegicus.

Activity calls are given as the source filed them. The rule behind the calls is not given here.

With `CC1(C)CCC[C@]2(C)[C@@H](OC(=O)c3ccc(OCCCNC(=O)CCCC[C@@H]4SC[C@@H]5NC(=O)N[C@@H]54)cc3OCC3CO3)CC[C@@H]12` (stereo not given in full), in the experiment with NRK [1], the Activity is listed as below 10%.

In the experiment on NRK [1], `CC1(C)CCC[C@]2(C)[C@@H](OC(=O)c3cc(I)c(OCC4CO4)cc3OCC3CO3)CC[C@@H]12` (stereo not given in full) gave an Activity above 80%.

In the case of `CC1(C)CCC[C@]2(C)[C@@H](OC(=O)c3ccc(N=[N+]=[N-])cc3OCCCNC(=O)CCCC[C@@H]3SC[C@@H]4NC(=O)N[C@@H]43)CC[C@@H]12`, in the experiment on NRK [2], the Activity is recorded as 50%.

On to `COC(=O)c1ccc(N=[N+]=[N-])cc1OCCCNC(=O)CCCC[C@@H]1SC[C@@H]2NC(=O)N[C@@H]21`, for which the outcome with NRK [2] (Rattus norvegicus) was inactive.

`CC1(C)CCC[C@]2(C)[C@@H](OC(=O)c3ccc(OCC4CO4)cc3OCC(=O)NCCOCCOCCNC(=O)CCCC[C@@H]3SC[C@@H]4NC(=O)N[C@@H]43)CC[C@@H]12` (stereo not given in full): the result in the experiment with NRK [1] (Rattus norvegicus) was Active.
